Converted amounts (≈) assume the structure as drawn. Where two headings read alike, the source gives them in different places.
Key:
[1] = test system: MRSA-1 (methicillin-resistant Staphylococcus aureus clinical isolate); test: MIC assay (broth microdilution, CLSI); format: cell-based; conditions: Staphylococcus aureus, MRSA, Table 2A; read-out: MIC, MRSA-1
[2] = test system: MRSA BAA-44; test: MIC assay (broth microdilution, CLSI); conditions: Staphylococcus aureus, read-out: MIC, MRSA BAA-44
[3] = test system: human red blood cells; test: Hemolysis assay with red blood cells; conditions: human, 1 h, 200 μM, pH 7.2
Procedure: The hemolysis activities of select compounds of the invention were determined. […] The washing was repeated three times with the buffer. In 96-well plate, test compounds were added to the buffer from DMSO stocks. […] The plate was then incubated for 1 hour at 37° C. After incubation, the plate was centrifuged for 5 minutes at 3,500 rpm. Then 80 μL of the supernatant was transferred to another 96-well plate, and the optical density (OD) was read at 405 nm. DMSO served as the negative control (0% hemolysis), while Triton X served as the positive control (100% hemolysis). The percent of hemolysis was calculated as (OD405 of the compound−OD405 of DMSO)/(OD405 of Triton X−OD405 of the buffer).
The washing was repeated three times with the buffer. In 96-well plate, test compounds were added to the buffer from DMSO stocks. […] The plate was then incubated for 1 hour at 37° C. After incubation, the plate was centrifuged for 5 minutes at 3,500 rpm. Then 80 μL of the supernatant was transferred to another 96-well plate and the optical density (OD) was read at 405 nm. DMSO served as our negative control (0% hemolysis) while Triton X served as our positive control (100% hemolysis). The percent of hemolysis was calculated as (OD405 of the test compound−OD405 DMSO)/(OD405 Triton X−OD405 buffer) from three independent experiments.

[4] = test system: Staphylococcus epidermidis (ATCC 35984), MRSE; test: MIC assay (broth microdilution, CLSI); format: cell-based; conditions: Staphylococcus epidermidis
[5] = test system: MRSA-2 (methicillin-resistant Staphylococcus aureus clinical isolate); test: MIC assay (broth microdilution, CLSI); format: cell-based; conditions: Staphylococcus aureus, MRSA, read-out: MIC, MRSA-2
[6] = test system: Staphylococcus epidermidis (ATCC 12228); test: MIC assay (broth microdilution, CLSI); format: cell-based; conditions: Staphylococcus epidermidis, ATCC12228
[7] = test system: Enterococcus faecium (ATCC 700221), VRE; test: MIC assay (broth microdilution, CLSI); format: cell-based
[8] = test system: MRSA BAA-1707; test: MIC assay (broth microdilution, CLSI); conditions: Staphylococcus aureus, read-out: MIC, MRSA BAA-1707
[9] = test system: MRSA-2 planktonic cells and biofilms; test: Calgary Biofilm Device (CBD) assay, MBC/MBEC; format: cell-based, Staphylococcus aureus; conditions: for MBC: Staphylococcus aureus, MRSA
[10] = test system: MRSE (S. epidermidis ATCC 35984) planktonic cells and biofilms; test: Calgary Biofilm Device (CBD) assay, MBC/MBEC; format: cell-based, Staphylococcus epidermidis; conditions: Staphylococcus epidermidis; Table 8; read-out: MRSE 35984 MBC
[11] = test system: VRE (E. faecium ATCC 700221) planktonic cells and biofilms; test: Calgary Biofilm Device (CBD) assay, MBC/MBEC; format: cell-based, Enterococcus faecium; conditions: Enterococcus; Table 8; c lowest concentration tested; read-out: VRE 700221 MBC
[12] = in vitro; format: cell-based; conditions: human
Procedure: (§1) The cytotoxicities of select compounds of the invention against HeLa cells were determined. HeLa cytotoxicity was assessed using the LDH release assay described by CYTOTOX96 (Promega G1780). HeLa cells were grown in Dulbecco's Modified Eagle Medium (DMEM; Gibco) supplemented with 10% Fetal Bovine Serum (FBS) at 37° C. with 5% CO2. […] Triton X-100 (at 2% v/v) was used as the positive control for maximum lactate dehydrogenate (LDH) activity in this assay (e.g., complete cell death), while “medium only” lanes served as negative control lanes (e.g., no cell death). DMSO was used as the vehicle control. […] Finally, Stop Solution (50 μL) was added to the incubating plates, and the absorbance was measured at 490 nm.
(§2) HeLa cytotoxicity was assessed using the LDH release assay described by CYTOTOX96 (Promega G1780). HeLa cells were grown in Dulbecco's Modified Eagle Medium (DMEM; Gibco) supplemented with 10% Fetal Bovine Serum (FBS) at 37° C. with 5% CO2. […] Triton X-100 (at 2% v/v) was used as the positive control for maximum lactate dehydrogenate (LDH) activity in this assay (e.g., complete cell death), while “medium only” lanes served as negative control lanes (e.g., no cell death). DMSO was used as our vehicle control. […] Finally, Stop Solution (50 μL) was added to the incubating plates and the absorbance was measured at 490 nm. Results are from three independent experiments (FIG. 19)

[13] = test system: HeLa cells; test: in vitro; format: cell-based; conditions: human, 24 h
Procedure: as §1, §2

[14] = Table 2A, read-out: MIC, Staphylococcus epidermidis (ATCC 35984)
[15] = Table 7, read-out: MIC, MRSE 35984
[16] = Table 7, a midpoint of 2-fold range, b lowest concentration tested
[17] = Table 2A, read-out: MIC, Staphylococcus epidermidis (ATCC 12228)
[18] = Table 7, b lowest concentration tested, read-out: MIC, S. epidermidis 12228
[19] = Enterococcus faecium, Table 2A, read-out: MIC, Enterococcus faecium (ATCC 700221)
[20] = Table 7, b lowest concentration tested, read-out: MIC, VRE 700221
[21] = Table 8, a/b 2-/4-fold range in independent experiments, read-out: MRSA-2 MBC

Structure (SMILES) | MIC [1] [µM] | melting point [°C] | MIC [2] [µM] | % Hemolysis (200 μM) [3] [%] | % Hemolysis at 200 μM [3] [%] | MIC [4, 14] [µM] | MIC [4, 15] [µM] | MIC ([5]; Table 2A) [µM] | MIC [5, 16] [µM] | MIC [6, 17] [µM] | MIC [6, 18] [µM] | MIC [7, 19] [µM] | MIC [7, 20] [µM] | MIC [8] [µM] | MBC ([9]; Table 4, read-out: MBC, MRSA-2) [µM] | MBC [9, 21] [µM] | MBEC:MBC ratio, MRSA-2 ([9]; Table 4) | MBC [10] [µM] | IC50 at 24 h [12] [µM] | IC50 [13] [µM] | also measured
Oc1c(Cl)cc(Cl)c2nc3ccccc3nc12 [Compound 3, 2,4-Dichloro-1-hydroxyphenazine] | 3.13 (≈ 0.83 µg/mL) | 205 to 207 | 3.13 (≈ 0.83 µg/mL) | ≤1 | ≤1 | 3.13 (≈ 0.83 µg/mL) | 3.13 (≈ 0.83 µg/mL) | 3.13 (≈ 0.83 µg/mL) | 3.13 (≈ 0.83 µg/mL) | 3.13 (≈ 0.83 µg/mL) | 3.13 (≈ 0.83 µg/mL) | 12.5 (≈ 3.31 µg/mL) | 12.5 (≈ 3.31 µg/mL) | 3.13 (≈ 0.83 µg/mL) | 62.5 (≈ 16.6 µg/mL) | 62.5 (≈ 16.6 µg/mL) | >16.0 |  |  |  | 
Oc1c(Cl)cc(Br)c2nc3ccccc3nc12 [Compound 5, 4-Bromo-2-chloro-1-hydroxyphenazine] |  | 229 to 231 | 3.13 (≈ 0.969 µg/mL) | ≤1 | ≤1 |  |  |  |  | 3.13 (≈ 0.969 µg/mL) | 3.13 (≈ 0.969 µg/mL) | 6.25 (≈ 1.93 µg/mL) | 6.25 (≈ 1.93 µg/mL) |  | 62.5 (≈ 19.3 µg/mL) | 62.5 (≈ 19.3 µg/mL) |  | 31.3 (≈ 9.69 µg/mL) | > 100 | > 100 | MBC [11]: 11.7 µM (≈ 3.62 µg/mL)
Oc1c(Cl)cc(I)c2nc3ccccc3nc12 [Compound 6, 2-Chloro-4-iodo-1-hydroxyphenazine] | 1.56 (≈ 0.556 µg/mL) | 183 to 185 | 1.56 (≈ 0.556 µg/mL) | 5.1 |  | 1.56 (≈ 0.556 µg/mL) | 1.56 (≈ 0.556 µg/mL) | 1.56 (≈ 0.556 µg/mL) | 1.56 (≈ 0.556 µg/mL) | 1.56 (≈ 0.556 µg/mL) | 1.56 (≈ 0.556 µg/mL) | 6.25 (≈ 2.23 µg/mL) | 6.25 (≈ 2.23 µg/mL) | 1.56 (≈ 0.556 µg/mL) | 15.6 (≈ 5.56 µg/mL) | 15.6 (≈ 5.56 µg/mL) | 8.0 |  | > 100 | > 100 | 
Oc1c(I)cc(Cl)c2nc3ccccc3nc12 [Compound 9, 4-Chloro-2-iodo-1-hydroxyphenazine] |  | 175 to 177 | 12.5 (≈ 4.46 µg/mL) | ≤1 | ≤1 | 25 (≈ 8.91 µg/mL) | 25 (≈ 8.91 µg/mL) | 25 (≈ 8.91 µg/mL) | 25 (≈ 8.91 µg/mL) | 25 (≈ 8.91 µg/mL) | 25 (≈ 8.91 µg/mL) | 6.25 (≈ 2.23 µg/mL) | 6.25 (≈ 2.23 µg/mL) | 3.13 (≈ 1.12 µg/mL) | 93.8 (≈ 33.4 µg/mL) | 93.8 (≈ 33.4 µg/mL) | 2.7 | 125 (≈ 44.6 µg/mL) |  |  | 
